Assay results published in patent US8796289B2 (AbbVie Inc., priority 2011, dated 2014).

The compounds below were run against GST-tagged-Wee1 kinase (Homo sapiens, UniProt P30291) (assay: Wee1 time-resolved fluorescence equilibrium binding assay (displacement of Oregon Green-labeled ATP-competitive kinase probe)). Conditions: not given.
Protocol: Wee1 kinase was assayed using a time-resolved fluorescence equilibrium binding assay monitoring displacement of a rapidly reversible Oregon Green-labeled ATP-competitive kinase probe (N-(2-(2-(2-(4-(4-(5-chloro-4-(2-(1-hydroxycyclobutyl)thiazol-5-yl)-1H-pyrrolo[2,3-b]pyridin-2-yl)phenyl)piperazin-1-yl)ethoxy)ethoxy)ethyl)-2′,7′-difluoro-3′,6′-dihydroxy-3-oxo-3H-spiro[isobenzofuran-1,9′-xanthene]-5-carboxamide) by competitive Wee1 inhibitors.

Chain of GST-tagged-Wee1 kinase (P30291 whole entry): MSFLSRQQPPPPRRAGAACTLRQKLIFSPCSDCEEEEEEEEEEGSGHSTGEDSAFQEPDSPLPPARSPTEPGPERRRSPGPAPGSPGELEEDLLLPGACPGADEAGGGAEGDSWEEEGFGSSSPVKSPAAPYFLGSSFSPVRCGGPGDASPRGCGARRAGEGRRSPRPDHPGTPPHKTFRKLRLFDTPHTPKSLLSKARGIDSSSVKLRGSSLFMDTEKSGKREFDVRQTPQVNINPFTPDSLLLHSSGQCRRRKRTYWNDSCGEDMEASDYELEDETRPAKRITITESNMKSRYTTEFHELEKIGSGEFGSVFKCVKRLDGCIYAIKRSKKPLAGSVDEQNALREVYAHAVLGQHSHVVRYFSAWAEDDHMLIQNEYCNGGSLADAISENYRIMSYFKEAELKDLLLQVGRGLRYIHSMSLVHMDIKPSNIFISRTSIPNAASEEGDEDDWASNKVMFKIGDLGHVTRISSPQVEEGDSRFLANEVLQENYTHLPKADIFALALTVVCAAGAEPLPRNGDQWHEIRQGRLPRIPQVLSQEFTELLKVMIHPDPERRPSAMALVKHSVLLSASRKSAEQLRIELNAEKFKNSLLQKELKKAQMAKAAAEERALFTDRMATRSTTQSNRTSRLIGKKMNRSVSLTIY

Compound | Ki [pM]
Cc1nn(-c2c(Cl)cccc2Cl)c(=O)c2cnc(Nc3cccc(N4CCN(CCCO)CC4)c3)nc12 [Example 510, 6-(2,6-dichlorophenyl)-2-({3-[4-(3-hydroxypropyl)piperazin-1-yl]phenyl}amino)-8-methylpyrimido[4,5-d]pyridazin-5(6H)-one] | 1100
O=c1c2cnc(Nc3ccc(N4CCNCC4)cc3)nc2cnn1-c1c(Cl)cccc1Cl [Example 325, 6-(2,6-dichlorophenyl)-2-{[4-(piperazin-1-yl)phenyl]amino}pyrimido[4,5-d]pyridazin-5(6H)-one] | 700
CN1CCN(c2ccc(Nc3ncc4c(=O)n(-c5c(Cl)cccc5Cl)nc(-c5ccncn5)c4n3)cc2)CC1 [Example 179, 6-(2,6-dichlorophenyl)-2-{[4-(4-methylpiperazin-1-yl)phenyl]amino}-8-(pyrimidin-4-yl)pyrimido[4,5-d]pyridazin-5(6H)-one] | 100
Cc1ccccc1-n1nc(-c2cccc(Br)c2)c2nc(Nc3ccc(N4CCN(C)CC4)cc3)ncc2c1=O [Example 66, 8-(3-bromophenyl)-6-(2-methylphenyl)-2-{[4-(4-methylpiperazin-1-yl)phenyl]amino}pyrimido[4,5-d]pyridazin-5(6H)-one] | 4000
CC(=O)N1Cc2cc(Nc3ncc4c(=O)n(-c5c(Cl)cccc5Cl)nc(C)c4n3)ccc2C(C)(C)C1 [Example 439, 2-[(2-acetyl-4,4-dimethyl-1,2,3,4-tetrahydroisoquinolin-7-yl)amino]-6-(2,6-dichlorophenyl)-8-methylpyrimido[4,5-d]pyridazin-5(6H)-one] | 690
Cc1cccc(-c2nn(-c3ccccc3Cl)c(=O)c3cnc(Nc4ccc(N5CCN(C)CC5)cc4)nc23)c1 [Example 51, 6-(2-chlorophenyl)-8-(3-methylphenyl)-2-{[4-(4-methylpiperazin-1-yl)phenyl]amino}pyrimido[4,5-d]pyridazin-5(6H)-one] | 400
Cc1cccc(Cl)c1-n1nc(C)c2nc(Nc3ccc4c(c3)CNCC4)ncc2c1=O [Example 495, 6-(2-chloro-6-methylphenyl)-8-methyl-2-(1,2,3,4-tetrahydroisoquinolin-7-ylamino)pyrimido[4,5-d]pyridazin-5(6H)-one] | 160
CCc1nn(-c2c(Cl)cccc2Cl)c(=O)c2cnc(Nc3ccc(N4CCCN(C)CC4)c(C)c3)nc12 [Example 469, 6-(2,6-dichlorophenyl)-8-ethyl-2-{[3-methyl-4-(4-methyl-1,4-diazepan-1-yl)phenyl]amino}pyrimido[4,5-d]pyridazin-5(6H)-one] | 630
CN1CCN(c2ccc(Nc3ncc4c(=O)n(-c5ccccc5Cl)nc(-c5ccoc5)c4n3)cc2)CC1 [Example 94, 6-(2-chlorophenyl)-8-(3-furyl)-2-{[4-(4-methylpiperazin-1-yl)phenyl]amino}pyrimido[4,5-d]pyridazin-5(6H)-one] | 500
Cc1nn(-c2c(Cl)cccc2Cl)c(=O)c2cnc(Nc3ccc4c(c3)CNCC4(C)C)nc12 [Example 438, 6-(2,6-dichlorophenyl)-2-[(4,4-dimethyl-1,2,3,4-tetrahydroisoquinolin-7-yl)amino]-8-methylpyrimido[4,5-d]pyridazin-5(6H)-one] | 180
Cc1ccccc1-n1nc(CCc2ccccc2)c2nc(Nc3ccc(N4CCN(C)CC4)cc3)ncc2c1=O [Example 12, 6-(2-methylphenyl)-2-{[4-(4-methylpiperazin-1-yl)phenyl]amino}-8-(2-phenylethyl)pyrimido[4,5-d]pyridazin-5(6H)-one] | 6000
COc1ccccc1-n1nc(-c2ccccc2)c2nc(Nc3ccc(N4CCN(C)CC4)cc3)ncc2c1=O [Example 30, 6-(2-methoxyphenyl)-2-{[4-(4-methylpiperazin-1-yl)phenyl]amino}-8-phenylpyrimido[4,5-d]pyridazin-5(6H)-one] | 1000

Same assay, conditions: read-out: Wee-1 inhibition Ki

Compound | Ki [pM]
6-(2,6-dichlorocyclohexa-1,5-dien-1-yl)-2-[(3-{[2-(dimethylamino)ethyl]amino}phenyl)amino]-8-methylpyrimido[4,5-d]pyridazin-5(6H)-one [Example 514] | 410
